# Assay results taken from ChEMBL document CHEMBL1157539, “Thousands of chemical starting points for antimalarial lead identification” (Nature, 2010).
# Tested on: Plasmodium falciparum
# Test: GSK_TCMDC: Inhibition of Plasmodium falciparum 3D7 in whole erythrocytes, using parasite LDH activity as an index of growth.
# Type: functional, organism-based
# Details: Plasmodium falciparum, 3D7
row,SMILES,XC50
1,Cc1nc(C)c(-c2ccc(Cl)cc2)c(O)c1I,674 nM
2,Cc1ccc(C(C#N)c2ccc3c(C(F)(F)F)cc(C(F)(F)F)nc3n2)cc1 (stereo unspecified),700 nM
3,COc1cc2nc(N3CCC(CNC(=O)c4ccc(-c5ccc(Cl)cc5)cc4)CC3)nc(N)c2cc1OC,147 nM
4,COc1ccc2nccc([C@@H](O)CN3CCC(NC(=O)/C=C/c4cccc(-c5ccccc5)c4)CC3)c2c1,248 nM
5,CC(C)[C@H](NC(=O)c1ccc(O)c(-c2ccc(Cl)c(Cl)c2)c1)C(=O)NCCN1CCOCC1,911 nM
6,COc1cc2cc(C(=O)Nc3ccccc3)c(N)nc2cc1OC,1130 nM
7,CN(C)c1ccc(CN2CCCCC(NC(=O)c3cc(-c4ccccc4F)cs3)C2)cc1 (stereo unspecified),826 nM
8,N#Cc1ccc(N(CC(=O)NCCc2ccccc2)CC2CC2)c2ccccc12,734 nM
9,O=C(NCC1CCCCC1)c1cc(=O)c2ccccc2o1,320 nM
10,CCCc1cc(OC)c(CC2c3cccc(O)c3CCN2C)cc1OC (stereo unspecified),305 nM
11,COc1cc(N)c(Cl)cc1C(=O)NCC1CCN(c2nc(C)cc(C)n2)CC1,509 nM
12,CCOc1ccccc1C1C(C(=O)C(C)(C)C)N2c3ccc(Br)cc3C=CC2C12C(=O)c1ccccc1C2=O (stereo unspecified),853 nM
13,CCOC(=O)N1CCN(CCCNc2c3ccccc3nc3ccccc23)CC1,1010 nM
14,O=C(NC1CCCCC1)N(Cc1cccc(-c2cccc(CNC3CCCC3)c2)c1)C1CCN(Cc2ccccc2)CC1,736 nM
15,CN(C)c1ccc(-c2nnc(Sc3ccc(C#N)c([N+](=O)[O-])c3)n2Cc2ccco2)cc1,854 nM
16,O=C(Nc1ccc(Cn2nc(Cl)c(N3CCNCC3)cc2=O)cc1)Nc1ccc(-c2ccccc2)cc1,753 nM
17,COc1cccc(Nc2nc(C)cc(NC3CCCC3)n2)c1,1110 nM
18,Cc1cccc2nc(-c3ccc(-c4ccc(CNCc5ccc(CN)cc5)cc4)s3)[nH]c12,442 nM
19,Cc1ccc(Cn2ncc(N3CCC(N)CC3)c(Cl)c2=O)cc1NC(=O)Nc1ccc(-c2ccccc2)cc1,917 nM
20,COc1ccc(NC(=O)/C=C/c2ccc(-c3ccccc3)cc2)cc1N1CCN(C)CC1,906 nM
21,CC[C@H](NC(=O)c1ccc(NC(=O)OC(C)(C)C)cc1)C(=O)N[C@@H](CO)C(=O)NCCCCc1ccccc1,830 nM
22,COc1ccc(C=NNc2cc(C)nc3ccc(OC)cc23)c(OC)c1,778 nM
23,CC(CNC(=O)[C@H]1CNCCN1C(=O)CCCc1ccccc1)c1ccccc1 (stereo partly specified),915 nM
24,CN1CCN(c2ccc(Nc3nccc(-c4cnn5ncccc45)n3)cc2Cl)CC1,833 nM

row,SMILES,XC50
1,COc1ccc(OC)c(-c2ccc(O)c(CNCC(C)c3ccccc3)c2)c1 (stereo unspecified),933 nM
2,CCCC(=O)Nc1ccc(OCCN(Cc2ccccc2OC(F)(F)F)c2ccc(C(F)(F)F)c(C#N)c2)cc1,788 nM
3,CN1CCN(CCCNCc2ccccc2-c2cccc(CNCc3ccc4c(c3)OCO4)c2)CC1,793 nM
4,COc1ccc(C(=O)COc2cccc(/C=C/C(=O)O)c2)cc1OC,1320 nM
5,O=C(CCCCCNC(=O)c1ccc(O)c(-c2ccc(Cl)c(Cl)c2)c1)NCc1cccc(C(F)(F)F)c1,731 nM
6,O=C(Nc1ccc(OC2CCN(Cc3ccco3)CC2)c(Cl)c1)c1ccc2ncccc2c1,949 nM
7,O=C(Nc1cccc(CN2CCCN(Cc3cccnc3)CC2)c1)c1cc2ccccc2s1,1470 nM
8,COc1ccc2nccc([C@@H](O)CN3CCC(NC(=O)c4cc5c(F)cc(F)cc5[nH]4)CC3)c2c1,245 nM
9,O=C(/C=C/c1ccc(Cl)c(Cl)c1)NC1CCC(CN2CCC(c3nc4ccccc4s3)CC2)CC1 (stereo unspecified),1020 nM
10,CC(C)(C)c1nn(-c2ccccc2)c2[nH]c(=O)c(CNCCc3ccccc3)cc12,866 nM
11,O=C(Nc1cccc(-c2ccc(-c3nc4ccccc4[nH]3)cc2)c1)c1ccncc1,529 nM
12,CC(C)(C)c1ccc(NC(=O)c2cccc(CN3CCCN(Cc4ccsc4)CC3)c2)cc1,760 nM
13,CN(Cc1cccc(O)c1)C1CCN(c2cc(NC(=O)c3ccc(F)cc3)ccn2)CC1,956 nM
14,CCCC(C(=O)OCCNC)(c1ccccc1)c1ccccc1,889 nM
15,CCOc1cc(Cc2cnc(N)nc2N)cc(OCC)c1O,1170 nM
16,COc1ccc(-n2ccnc2SCC(=O)Nc2cccc(C(F)(F)F)c2)c(OC)c1,220 nM
17,O=C(Nc1cccc(OC2CCN(Cc3ccsc3)CC2)c1)c1ccc(C(F)(F)F)cc1,765 nM
18,CC(=O)NCCNc1nccc(N2CCc3ncnc(Nc4ccc(OCc5ccccn5)c(Cl)c4)c3C2)n1,822 nM
19,COc1cc(Cc2cnc(N)nc2N)cc(OC)c1OCCNC(=O)[C@@H](N)CCC(=O)O,843 nM
20,O=C(c1cccc(-c2cccc(-c3nc4ccccc4[nH]3)c2)c1)N1CCCCC1CN1CCC(O)C1 (stereo unspecified),728 nM
21,CC(=O)C1(c2ccccc2)CCN(CCC2(c3ccc(Cl)c(Cl)c3)CN(C(=O)C3CCCCC3)CCO2)CC1 (stereo unspecified),314 nM
22,Nc1c2c(nc3ccc(NC(=O)Cc4ccccc4)cc13)CCCC2,755 nM
23,C=C[C@]1(C)C[C@@H](OC(=O)CSC2CN3CCC2C3)[C@@]2(C)C3C(=O)CC[C@@]3(CC[C@H]2C)[C@@H](C)[C@@H]1O (stereo partly specified),689 nM
24,CC(C)CCOc1ccc(NC(=O)c2cccs2)cc1,514 nM

row,SMILES,XC50
1,CCNC(=O)Nc1ccc(-c2cccc(-c3nc4cccc(C)c4[nH]3)c2)cc1,756 nM
2,NC1=NC(c2ccccc2)(c2ccccn2)C(=O)N1CCCc1ccccc1 (stereo unspecified),1040 nM
3,COc1cccc(C(=O)NC(c2ccc(Cl)cc2Cl)c2cc(Cl)c3cccnc3c2O)c1 (stereo unspecified),454 nM
4,COc1ccccc1CC1CCCN(C2CCC(NC(=O)c3cc4ccccc4[nH]3)CC2)C1 (stereo unspecified),842 nM
5,Cc1nnsc1C(=O)Nc1cccc(-c2csc(-c3nc4ccccc4[nH]3)c2)c1,351 nM
6,CCNc1cc(C(=O)N[C@@H](Cc2ccccc2)[C@H](O)CNCc2cccc(-n3ccnc3)c2)cc(N2CCCC2=O)c1,635 nM
7,CCn1c(-c2nonc2N)nc2c(-c3cccc(NC(=O)Nc4ccc(C#N)cc4)c3)ncc(OCCCN)c21,1510 nM
8,COc1ccc(-c2cnc3[nH]cc(-c4ccc(CCC(=O)O)cc4)c3c2)cn1,773 nM
9,CCN(CC)CCNc1ccc(Nc2ccnc3cc4ccccc4cc23)cc1,197 nM
10,CC(=O)c1ccc(O)c(CC(O)CO)c1 (stereo unspecified),723 nM
11,COc1cccc2cc(C(=O)N[C@@H](CC(C)C)C(=O)N[C@H](/C=N/NC(=O)c3ccccc3)Cc3c[nH]cn3)oc12,130 nM
12,O=C(NCCCCN1CCC(c2ccc3ccccc3c2)CC1)c1ccc(NC(=O)c2ccc(Cl)cc2)cc1,226 nM
13,N=C(N)NC(=O)Nc1ccc([N+](=O)[O-])c(Cl)c1,880 nM
14,COc1cc(OC)c2c(c1Cl)O[C@]1(C2=O)C(=O)C(Cc2ccccc2)(Cc2ccccc2)C(=O)C[C@H]1C,974 nM
15,COc1ccc(CNCc2cccc(-c3ccc(-c4nc5ccccc5[nH]4)cc3)c2)cc1,311 nM
16,COc1ccc(C(=O)O)cc1OCc1ccccc1,819 nM
17,COc1ccc(-c2ccnc(-c3cccc(-c4ccccn4)n3)c2)cc1,824 nM
18,CC1CCCN(S(=O)(=O)c2ccc(NC(=O)c3cc(-c4ccccc4O)n[nH]3)cc2)C1 (stereo unspecified),757 nM
19,c1ccc(CNc2nc(NCCc3c[nH]cn3)nc(NCc3cccc4ccccc34)n2)cc1,1110 nM
20,CN1CCN(CCCN(Cc2cccc(-c3cccc(CNC4CCCC4)c3)c2)C(=O)/C=C/c2ccccc2)CC1,777 nM
21,CCOc1ccc2c(=NN=Cc3cc(OC)c(OC)c(OC)c3)cc(C)[nH]c2c1,613 nM
22,Cc1ccc2nc(-c3ccc(C(=O)NC4CCN(Cc5ccccc5)CC4)cc3)[nH]c2c1C,729 nM
23,O=c1ccc2ccc(F)c3c2n1CC3CN1CCC(NCc2ccc(-c3cccc(Cl)c3)nc2)CC1 (stereo unspecified),992 nM
